Starred links: 1 amine or outer side, 2 acyl side, 3 side chain; linkers in the order of their positions; H or OH if unused. Non-standard residues stand in square brackets, D forms with d. Residues, ends and D or L forms follow the SMILES beside them. *: point of attachment. Dolaproine = CO[C@@H]([C@@H]1CCCN1)[C@@H](C)C(=O)O; Hexanoyl(6-maleimido) = O=C1C=CC(=O)N1CCCCCC(=O)*; Dil = CC[C@H](C)[C@H](NC)[C@@H](CC(=O)O)OC; PABC = O=C(OCc1ccc(N[*:1])cc1)[*:2]; X1 = C[C@@H](N*)[C@@H](O)c1ccccc1; Cit = NC(=O)NCCC[C@H](N)C(=O)O; NMeV = CN[C@H](C(=O)O)C(C)C
System: HCT116
Assay: ADC in vitro cell killing assay (CCK-8)
Format: cell-based, human
Settings: HCT116, 72 h
Experimental: HCT116 (Cat: CBP60028, Cobioer Biosciences Co., Ltd.) in the logarithmic growth phase was trypsinized, plated in a 96-well plate at 3000 cells/well in 100 µL, and the plate was incubated in a 37°C, 5% CO2 incubator for 24 h. ADC was subjected to a 5-fold serial dilution with cell culture medium (Ham's F-12K, 10% FBS, AusGenex, Cat:FBS500-S) starting from 30000nM, yielding 10 concentration gradients. 10 µL of the diluted sample was added to the cell plate for mixing well, and the plate was incubated in a 37°C, 5% CO2 incubator for 72 h. 10 µL of Cell Counting Kit-8 (CellorLab, CX001) was added to the plate, and the plate was incubated in a 37 °C, 5% CO2 constant temperature incubator for 3 h. The absorbance value at 450 nm was measured with a microplate reader. Data was analyzed with Graphpad, with the in vitro killing activity of TEM8 antibody-drug conjugate shown in Table 5 and the IC50 curve shown in FIG. 4. Table 5: In vitro killing activity of TEM8 antibody-drug conjugate or linker + payload or payload

Row | SMILES | IC50 [nM]
1 | CC[C@H](C)[C@@H]([C@@H](CC(=O)N1CCC[C@H]1[C@H](OC)[C@@H](C)C(=O)N[C@H](C)[C@@H](O)c1ccccc1)OC)N(C)C(=O)[C@@H](NC(=O)[C@@H](NC)C(C)C)C(C)C [MMAE] (H-[NMeV]V[Dil][Dolaproine]-X1) | 14.8
2 | CC[C@H](C)[C@@H]([C@@H](CC(=O)N1CCC[C@H]1[C@H](OC)[C@@H](C)C(=O)N[C@H](C)[C@@H](O)c1ccccc1)OC)N(C)C(=O)[C@@H](NC(=O)[C@H](C(C)C)N(C)C(=O)OCc1ccc(NC(=O)[C@H](CCCNC(N)=O)NC(=O)[C@@H](NC(=O)CCCCCN2C(=O)C=CC2=O)C(C)C)cc1)C(C)C [VcMMAE] ({Hexanoyl(6-maleimido)}-V[Cit][PABC][NMeV]V[Dil][Dolaproine]-X1) | 1280

Source: EP4722246A1, “TEM8-TARGETED ANTIBODY OR ANTIGEN-BINDING FRAGMENT THEREOF, AND USE THEREOF” (Inxmed (Nanjing) Co., Ltd., priority 2023, dated 2024)
